Data as given in ChEMBL document CHEMBL3044547, “2-Substituted-8-methyl-3,6-dihydroimidazo[4,5-c]pyrazolo[3,4-e]pyridazine as an anti-inflammatory agent” (2011).

What was measured:
Format in all cases: functional
Rattus norvegicus [1] = test: Anti-inflammatory activity in Rattus norvegicus albino (rat) assessed as carageenaan-induced paw edema at 100 mg/kg, po administered 1 hr prior to carageenaan-challenge measured at 90 min relative to control (reference value: 38.7%)
Rattus norvegicus [2] = test: Anti-inflammatory activity in Rattus norvegicus albino (rat) assessed as carageenaan-induced paw edema at 100 mg/kg, po administered 1 hr prior to carageenaan-challenge measured at 30 min relative to control (reference value: 30.1%)
Rattus norvegicus [3] = test: Anti-inflammatory activity in Rattus norvegicus albino (rat) assessed as carageenaan-induced paw edema at 100 mg/kg, po administered 1 hr prior to carageenaan-challenge measured at 180 min relative to control (reference value: 22.3%)
Rattus norvegicus [4] = test: Anti-inflammatory activity against carageenaan-induced paw edema in Rattus norvegicus albino (rat) at 100 mg/kg, po administered 1 hr prior to carageenaan-challenge measured up to 3 hr
Rattus norvegicus [5] = test: Anti-inflammatory activity in Rattus norvegicus albino (rat) assessed as carageenaan-induced paw edema at 100 mg/kg, po administered 1 hr prior to carageenaan-challenge measured at 30 min (reference value: 100%)
Rattus norvegicus [6] = test: Anti-inflammatory activity in Rattus norvegicus albino (rat) assessed as carageenaan-induced paw edema at 100 mg/kg, po administered 1 hr prior to carageenaan-challenge measured at 120 min (reference value: 100%)
Rattus norvegicus [7] = test: Anti-inflammatory activity in Rattus norvegicus albino (rat) assessed as carageenaan-induced paw edema at 100 mg/kg, po administered 1 hr prior to carageenaan-challenge measured at 90 min (reference value: 100%)

Structure (SMILES)	Activity (Rattus norvegicus [1]) [%]	Activity (Rattus norvegicus [2]) [%]	Activity (Rattus norvegicus [3]) [%]	Activity (Rattus norvegicus [4]) [%]	Activity (Rattus norvegicus [5]) [%]	Activity (Rattus norvegicus [6]) [%]	Activity (Rattus norvegicus [7]) [%]
Cc1n[nH]c2nnc3nc(-c4ccccc4)[nH]c3c12	23.4	14.1	14.9	30	–	–	–
Cc1n[nH]c2nnc3nc(/C=C\c4ccccc4)[nH]c3c12	6.2	3.9	0.4	35	–	–	–
Cc1n[nH]c2nnc3nc(-c4ccccc4C(=O)O)[nH]c3c12	23.3	15.1	20.6	41	–	–	–
Cc1n[nH]c2nnc3nc(CCC(=O)O)[nH]c3c12	18.4	6.5	21.4	33	–	–	–
Cc1n[nH]c2nnc3nc(CCCCC(=O)O)[nH]c3c12	46.5	33.9	33.6	31	–	–	–
CC(C)Cc1ccc(C(C)C(=O)O)cc1 (centres undefined) [IBUPROFEN]	–	–	–	49	101	11.6	108
